From the NIST ThermoML archive (doi:10.1007/s10765-011-1149-x)
± gives the expanded uncertainty stated by the source.

What was measured:
[1] = 101 kPa, Liquid, Vibrating tube method
[2] = xn = mol fraction of the nth substance listed; details: 101 kPa, Liquid, Vibrating tube method, x2 = 0

OCCO [1,2-ethanediol]
[1]
Details	mass density [kg/m3]
276.15 K	1125.17 ± 0.17
277.15 K	1124.48 ± 0.17
283.15 K	1120.32 ± 0.16
293.15 K	1113.37 ± 0.16
303.15 K	1106.36 ± 0.16
313.15 K	1099.3 ± 0.16

OCCO [1,2-ethanediol] + Cc1cc(C)nc(C)c1
[2]
Details	mass density [kg/m3]
276.15 K	1125.17 ± 0.17
277.15 K	1124.48 ± 0.17
283.15 K	1120.32 ± 0.16
293.15 K	1113.37 ± 0.16
303.15 K	1106.36 ± 0.16
313.15 K	1099.3 ± 0.16

Cc1cc(C)nc(C)c1 [2,4,6-trimethylpyridine]
[1]
Details	mass density [kg/m3]
276.15 K	928.45 ± 0.23
277.15 K	927.61 ± 0.23
283.15 K	922.54 ± 0.23
288.15 K	918.32 ± 0.24
293.14 K	914.08 ± 0.24
298.15 K	909.84 ± 0.24
303.15 K	905.58 ± 0.24
308.15 K	901.31 ± 0.24
313.15 K	897.03 ± 0.24

CO [methanol]
[1]
Details	mass density [kg/m3]
276.15 K	807.18 ± 0.15
277.15 K	806.25 ± 0.15
283.15 K	800.64 ± 0.15
288.15 K	795.96 ± 0.15
293.15 K	791.26 ± 0.15
298.15 K	786.55 ± 0.15
303.15 K	781.83 ± 0.15
308.15 K	777.08 ± 0.15
313.14 K	772.31 ± 0.16

CO [methanol] + Cc1cc(C)nc(C)c1
[2]
Details	mass density [kg/m3]
276.15 K	807.18 ± 0.15
277.15 K	806.25 ± 0.15
283.15 K	800.64 ± 0.15
288.15 K	795.96 ± 0.15
293.15 K	791.26 ± 0.15
298.15 K	786.55 ± 0.15
303.15 K	781.83 ± 0.15
308.15 K	777.08 ± 0.15
313.14 K	772.31 ± 0.16
